Broadly, the Ki is the dissociation constant of the complex between target and ligand, obtained from inhibition or displacement. The logP is a log measure of how a compound divides between an organic and an aqueous phase. By IC50 is commonly meant the midpoint of a concentration-inhibition curve. The term EC50 denotes the concentration giving half of the maximal effect. The pKa is the pH at which an ionisable group is half protonated.

Consider 19 compounds from ChEMBL document CHEMBL4616678, “Design, Synthesis, and Physicochemical and Pharmacological Profiling of 7-Hydroxy-5-oxopyrazolo[4,3-b]pyridine-6-carboxamide Derivatives with Antiosteoarthritic Activity In Vivo” (J Med Chem, 2020).

In one data set the target is Cannabinoid receptor 1 (Homo sapiens, UniProt P21554). Kind of data set: Displacement of [3H]-CP-55,940 from recombinant human CB1R expressed in HEK293 cell membranes.
In data set [1] the target is T1, Cannabinoid receptor 2 (Homo sapiens, UniProt P34972). Kind of data set: Displacement of [3H]-CP-55,940 from recombinant human CB2R expressed in HEK293 cell membranes.
The species named for the next data set is Homo sapiens. Kind of data set: Selectivity index, ratio of Ki for recombinant human CB1R expressed in HEK293 cell membranes to Ki for recombinant human CB2R expressed in HEK293 cell membranes. Format: cell-based.
Data set [2] in a line: Kinetic solubility of the compound at pH 7.4 by HPLC-UV method. Format: physicochemical. The conditions noted are these: buffer, read-out: Kinetic_solubility.
The nature of data set [3]: Lipophilicity, log P of the compound by UV-vis spectra analysis. In kind it is physicochemical. As to conditions: octanol/water.
Data set [4] in a line: Cytotoxicity against human NHAC-kn assessed as reduction in cell viability after 1 to 14 days by Neutral red dye-based UV-visible spectrophotometer analysis. In kind it is functional.
The target in data set [5] is T1, Cannabinoid receptor 2. Kind of data set: Inverse agonist activity at recombinant human CB2R expressed in CHOK1 cells assessed as increase in NKH477-stimulated intracellular cAMP levels after 30 mins by chemiluminescent based cAMP Hunter assay. Format: functional, cell-based, CHO-K1. Background: Cyclic AMP is a second messenger, typically raised through Gs and lowered through Gi signalling.

A further data set relates to NIH3T3. Kind of data set: Cytotoxicity against mouse NIH/3T3 assessed as reduction in cell viability after 1 to 14 days by Neutral red dye-based UV-visible spectrophotometer analysis. In kind it is functional.
Data set [6] in a line: Ionization Constants, pKa of the compound by UV-vis spectra analysis. In kind it is physicochemical.
Data set [7] can be described thus: Kinetic solubility of the compound at pH 1.0 by HPLC-UV method. In kind it is physicochemical. The conditions noted are these: buffer, read-out: Kinetic_solubility.
For data set [8], the target named is T1, Cannabinoid receptor 2. Kind of data set: Agonist activity at recombinant human CB2R expressed in CHOK1 cells assessed as inhibition of NKH477-stimulated intracellular cAMP levels after 30 mins by chemiluminescent detection based cAMP Hunter assay. In kind it is functional, cell-based, CHO-K1.

≈ marks a conversion by molar mass, not a printed value.

Chain of Cannabinoid receptor 1 (P21554 whole entry): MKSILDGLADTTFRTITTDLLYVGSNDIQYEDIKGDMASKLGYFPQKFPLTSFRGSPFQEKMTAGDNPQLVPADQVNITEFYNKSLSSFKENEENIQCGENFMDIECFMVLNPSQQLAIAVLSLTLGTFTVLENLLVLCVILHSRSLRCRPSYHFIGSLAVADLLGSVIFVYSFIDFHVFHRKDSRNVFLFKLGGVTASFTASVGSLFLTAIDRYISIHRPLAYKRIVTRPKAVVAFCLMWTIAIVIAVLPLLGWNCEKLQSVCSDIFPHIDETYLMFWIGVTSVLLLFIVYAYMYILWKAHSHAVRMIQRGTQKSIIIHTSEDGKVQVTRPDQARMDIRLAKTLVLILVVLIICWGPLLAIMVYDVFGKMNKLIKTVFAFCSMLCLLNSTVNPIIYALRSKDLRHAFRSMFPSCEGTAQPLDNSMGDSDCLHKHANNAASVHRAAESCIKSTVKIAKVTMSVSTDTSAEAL
T1 sequence (P34972 whole entry): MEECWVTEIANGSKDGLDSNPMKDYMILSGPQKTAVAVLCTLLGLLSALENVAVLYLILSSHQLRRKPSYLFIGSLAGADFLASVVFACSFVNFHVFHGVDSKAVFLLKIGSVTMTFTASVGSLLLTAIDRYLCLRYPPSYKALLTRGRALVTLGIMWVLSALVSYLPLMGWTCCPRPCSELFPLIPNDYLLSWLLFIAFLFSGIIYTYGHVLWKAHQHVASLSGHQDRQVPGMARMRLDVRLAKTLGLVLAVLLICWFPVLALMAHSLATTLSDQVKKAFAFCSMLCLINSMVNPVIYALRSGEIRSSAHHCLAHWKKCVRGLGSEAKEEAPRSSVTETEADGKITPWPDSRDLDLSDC

Regarding `CCCn1c(=O)c(C(=O)NC23CC4CC(CC(C4)C2)C3)c(O)c2nn(CCOC(C)=O)cc21`, the Ki on Cannabinoid receptor 1 is greater than 1000 nM; at Cannabinoid receptor 2 [1], 186 nM. Moreover, the Ratio Ki in the data set filed under Homo sapiens turned out to be 5. In addition, the solubility kinetic in [2] amounted to 1.1 µg/mL (≈ 2.41 µM).
As to `CCCCn1c(=O)c(C(=O)NC23CC4CC(CC(C4)C2)C3)c(O)c2nn(C)cc21`, the figures for the inhibition constant Ki at Cannabinoid receptor 1 and on Cannabinoid receptor 2 [1] were 231 nM and 2.5 nM, respectively. Moreover, the logP in data set [3] amounted to 5.3. The IC50 in data set [4] was determined as 7500 nM; with NIH3T3, 12500 nM. Besides, the half-maximal effective concentration (EC50) at Cannabinoid receptor 2 [5] was found to be 370 nM. Also, the solubility kinetic in [2] came out at 1.9 µg/mL (≈ 4.77 µM); in data set [7] it was 0.23 µg/mL (≈ 0.577 µM). Further, the pKa in data set [6] stood at 8.6.
As for `CCCC(C)(C)c1ccc2c(c1)OC(C)(C)[C@@H]1CC=C(C)C[C@@H]21`, at Cannabinoid receptor 2 [8], the EC50 was determined as 391 nM.
On to `Cn1cc2c(n1)c(O)c(C(=O)NC13CC4CC(CC(C4)C1)C3)c(=O)n2CCCCO`, for which the inhibitory constant (Ki) at Cannabinoid receptor 1 was greater than 1000 nM; at Cannabinoid receptor 2 [1], 14.3 nM. The IC50 came out at 12500 nM in data set [4] and 25000 nM with NIH3T3. In addition, the EC50 at Cannabinoid receptor 2 [5] worked out at 1450 nM. Moreover, the solubility kinetic in data set [2] was determined as 3.2 µg/mL (≈ 7.72 µM); in data set [7], 2.53 µg/mL (≈ 6.1 µM).
Turning to `CCCCn1c(=O)c(C(=O)NC23CC4CC(CC(C4)C2)C3)c(O)c2nn(CCO)cc21`, the Ki at Cannabinoid receptor 1 is greater than 1000 nM; at Cannabinoid receptor 2 [1], 18.4 nM. For the same compound, the results for the half-maximal inhibitory concentration (IC50) (in data set [4]; in the data set on NIH3T3) were 2500 nM and 12500 nM, respectively. Further, the results for the solubility kinetic in data set [2] and in data set [7] were 2.1 µg/mL (≈ 4.9 µM) and 1.6 µg/mL (≈ 3.73 µM), respectively.
As to `CCCCCN1C(=O)C(C(=O)NC23CC4CC(CC(C4)C2)C3)=C(O)C2C1C=NN2C` (stereo unspecified), the Ki at Cannabinoid receptor 1 amounted to 56 nM; on Cannabinoid receptor 2 [1], 0.9 nM. Further, in the data set filed under Homo sapiens, the Ratio Ki turned out to be 62. Besides, at Cannabinoid receptor 2 [8], the EC50 came out at 252 nM. Moreover, the solubility kinetic in data set [2] is 1.08 µg/mL (≈ 2.61 µM); in [7], 0.4 µg/mL (≈ 0.965 µM).
Turning to `CC(=O)OCCCCn1c(=O)c(C(=O)NC23CC4CC(CC(C4)C2)C3)c(O)c2nn(C)cc21`, the Ki on Cannabinoid receptor 1 is greater than 1000 nM; at Cannabinoid receptor 2 [1], 17.3 nM. Besides, the IC50 in [4] came out at 7500 nM; with NIH3T3 it was 25000 nM. Also, the concentration giving a half-maximal response (EC50) on Cannabinoid receptor 2 [5] is 2080 nM. Moreover, the solubility kinetic in data set [2] worked out at 1.3 µg/mL (≈ 2.85 µM).
Regarding `CN1N=CC2C1C(O)=C(C(=O)NC13CC4CC(CC(O)(C4)C1)C3)C(=O)N2CCCCF` (stereo unspecified), the results for the Ki at Cannabinoid receptor 1 and on Cannabinoid receptor 2 [1] were 161 nM and 18.9 nM, respectively. Besides, the figures for the half-inhibitory concentration (IC50) (in [4]; with NIH3T3) were 7500 nM and 25000 nM, respectively. Also, the concentration giving a half-maximal response (EC50) at Cannabinoid receptor 2 [8] is 71.8 nM. Also, the solubility kinetic in data set [2] came out at 15.1 µg/mL (≈ 34.8 µM); in data set [7] it was 9.1 µg/mL (≈ 20.9 µM).
Regarding `Cn1cc2c(n1)c(O)c(C(=O)NC13CC4CC(CC(O)(C4)C1)C3)c(=O)n2CCCCF`, the values for the Ki at Cannabinoid receptor 1 and on Cannabinoid receptor 2 [1] were greater than 1000 nM and 6.2 nM, respectively. For the same compound, the log partition coefficient (logP) in [3] came to 3.15. In addition, the IC50 turned out to be 12500 nM in data set [4] and 25000 nM in the data set on NIH3T3. Besides, the 50% effective concentration (EC50) on Cannabinoid receptor 2 [5] was found to be 590 nM. For the same compound, the solubility kinetic was 37.6 µg/mL (≈ 86.9 µM) in data set [2] and 39.9 µg/mL (≈ 92.3 µM) in data set [7]. The compound further displayed a pKa in data set [6] of 7.97.
Regarding `CCCCCn1cc(C(=O)NC23CC4CC(CC(C4)C2)C3)c(=O)c2cc(C(C)C)ccc21`, the solubility kinetic in [2] came to 1 µg/mL (≈ 2.3 µM).
As for `Cn1cc2c(n1)c(O)c(C(=O)NC13CC4CC(CC(C4)C1)C3)c(=O)n2CCCCF`, the inhibition constant (Ki) came to 532 nM on Cannabinoid receptor 1 and 2.1 nM on Cannabinoid receptor 2 [1]. The IC50 in data set [4] came to 7500 nM; in the data set on NIH3T3, 12500 nM. For the same compound, the 50% effective concentration (EC50) on Cannabinoid receptor 2 [5] was 270 nM. Moreover, the solubility kinetic in data set [2] is 0.8 µg/mL (≈ 1.92 µM); in [7], 0.6 µg/mL (≈ 1.44 µM).
In the case of `CCCCn1c(=O)c(C(=O)NC23CC4CC(CC(O)(C4)C2)C3)c(O)c2nn(C)cc21`, the values for the inhibitory constant (Ki) on Cannabinoid receptor 1 and at Cannabinoid receptor 2 [1] were greater than 1000 nM and 10.6 nM, respectively. Further, the logP in data set [3] came to 4.08. Moreover, the IC50 is 2500 nM in [4] and 7500 nM with NIH3T3. In addition, the solubility kinetic in data set [2] amounted to 20.9 µg/mL (≈ 50.4 µM); in [7], 15 µg/mL (≈ 36.2 µM). In addition, the pKa in data set [6] came out at 7.9.
As for `CCCn1c(=O)c(C(=O)NC23CC4CC(CC(C4)C2)C3)c(O)c2nn(CCO)cc21`, the Ki was greater than 1000 nM at Cannabinoid receptor 1 and 159 nM on Cannabinoid receptor 2 [1]. For the same compound, the Ratio Ki in the data set listed under Homo sapiens was found to be 6. The solubility kinetic in data set [2] was 3.9 µg/mL (≈ 9.41 µM); in [7] it was 3.4 µg/mL (≈ 8.2 µM).
Regarding `CCCCCn1c(=O)c(C(=O)NC23CC4CC(CC(O)(C4)C2)C3)c(O)c2nn(CCO)cc21`, the Ki on Cannabinoid receptor 1 was determined as 492 nM; on Cannabinoid receptor 2 [1], 57.1 nM. Moreover, the concentration for half-maximal inhibition (IC50) in data set [4] worked out at 2500 nM; with NIH3T3 it was 7500 nM. Further, the values for the solubility kinetic in data set [2] and in data set [7] were 15 µg/mL (≈ 32.7 µM) and 9.7 µg/mL (≈ 21.2 µM), respectively.
Turning to `CCCCCn1c(=O)c(C(=O)NC23CC4CC(CC(C4)C2)C3)c(O)c2nn(CCO)cc21`, the inhibition constant (Ki) is 108 nM at Cannabinoid receptor 1 and 4.8 nM on Cannabinoid receptor 2 [1]. Also, the IC50 was determined as 2500 nM in [4] and 7500 nM with NIH3T3. The half-maximal effective concentration (EC50) on Cannabinoid receptor 2 [5] was 880 nM. The results for the solubility kinetic in [2] and in data set [7] were 0.7 µg/mL (≈ 1.58 µM) and 0.38 µg/mL (≈ 0.859 µM), respectively.
For `CN1N=CC2C1C(O)=C(C(=O)NC13CC4CC(CC(C4)C1)C3)C(=O)N2CCCCF` (stereo unspecified), the results for the inhibitory constant (Ki) at Cannabinoid receptor 1 and at Cannabinoid receptor 2 [1] were 39.3 nM and 1.4 nM, respectively. Also, the 50% inhibitory concentration (IC50) (in data set [4]; in the data set with NIH3T3) was 12500 nM each time. Further, on Cannabinoid receptor 2 [8], the EC50 was found to be 21.9 nM. In addition, the solubility kinetic stood at 1.5 µg/mL (≈ 3.58 µM) in [2] and 0.7 µg/mL (≈ 1.67 µM) in data set [7].
Regarding `CCCCCn1c(=O)c(C(=O)NC23CC4CC(CC(C4)C2)C3)c(O)c2nn(C)cc21`, the Ki on Cannabinoid receptor 1 was determined as 33.5 nM; at Cannabinoid receptor 2 [1] it was 0.18 nM. For the same compound, the concentration giving a half-maximal response (EC50) on Cannabinoid receptor 2 [5] was 1180 nM. Also, the Ratio Ki in the data set listed under Homo sapiens was 167. Moreover, the results for the solubility kinetic in data set [2] and in [7] were 1.9 µg/mL (≈ 4.61 µM) and 2.9 µg/mL (≈ 7.03 µM), respectively.
Consider `COc1ccc(C(=O)c2c(C)n(CCN3CCOCC3)c3cc(I)ccc23)cc1`, for which the EC50 at Cannabinoid receptor 2 [5] is 3150 nM.
Turning to `CCCCN1C(=O)C(C(=O)NC23CC4CC(CC(O)(C4)C2)C3)=C(O)C2C1C=NN2C` (stereo unspecified), the Ki at Cannabinoid receptor 1 is 86.9 nM; on Cannabinoid receptor 2 [1], 19.3 nM. The logP in data set [3] came to 4.85. Besides, the half-inhibitory concentration (IC50) in [4] was found to be 7500 nM; in the data set on NIH3T3 it was 25000 nM. The solubility kinetic was 4.6 µg/mL (≈ 11 µM) in data set [2] and 2.1 µg/mL (≈ 5.04 µM) in [7]. This compound also registered a pKa in data set [6] of 7.56.
